Experiments:
[1] = tested on: platelets produced from immortalized megakaryocyte cell lines (SeV2-MKCL); assay: Bioactivity of platelets produced, MFIs of CD62p and PAC-1 by flow cytometer; type: cell-based, human
Experimental: The bioactivity of platelets obtained in Example 1(2) was measured using a flow cytometer. Specifically, 900 μL of diluent was added to a 1.5-mL microtube, and 100 μL of culture solution after platelet production was added and mixed. Then, 200 μL of obtained solution was poured into a FACS tube, stained by adding the labeled antibody shown below, and the MFIs of CD62p and PAC-1 in platelets were analyzed using the flow cytometer. The same analysis was also performed using the flow cytometer in NC, and then the increase percentage of the MFIs of CD62p and PAC-1 in the respective samples were calculated with reference to the MFIs of CD62p and PAC-1 in NC.
FIGS. 2A and 2B are graphs each showing the increase percentage of MFIs of CD62p and PAC-1. […] In addition, the expression levels of CD62p and PAC-1 were increased in a concentration-dependent manner.
The increase percentages of MFIs of CD62p and PAC-1 were calculated in the same manner as in Example 1(3) except that platelet was produced using a platelet production medium being added with cysteine at a predetermined concentration (1, 5, or 10 mmol/L) instead of glycine. The platelet production medium contains 0.6 to 0.8 mmol/L cysteine. Therefore, the concentration of the cysteine in the platelet production medium after being added with cysteine are about 2 to about 11 mmol/L. As a control, the increase percentage of MFIs of CD62p and PAC-1 was calculated in the same manner except that no cysteine was added.

[2] = tested on: immortalized megakaryocyte cell line from iPS cells induced from SeV2-MKCL; conditions: high-density culture (×4), compared with control in high-density culture
Text: iPS cells were induced by introducing c-MYC, OCT3/4, SOX2, and KLF4 into immortalized megakaryocyte cell line (SeV2-MKCL) obtained in Example 1(1-6) by the Sendai virus vector according to the method described in WO 2010/134526. Next, immortalized megakaryocyte cell lines were induced in the same manner as in Examples 1(1-1) to (1-6) except that the induced iPS cells were used instead of the human iPS cells (TKDN SeV2). Further, as to the obtained immortalized megakaryocyte cell line, the number of platelets was counted and the platelet concentration was calculated in the same manner as in Example 1(2). Then, the P/M ratio was calculated based on the megakaryocyte cell density (dissemination density) at the start of production of platelets and the platelet concentration.

[3] = tested on: platelets produced from immortalized megakaryocyte cell lines (SeV2-MKCL); conditions: 10 mmol/L glycine and 20 U/mL heparin added; dissemination density ×1, ×2, ×3, ×4, ×8; compared with controls; FIG. 3
Experimental: In addition, the deterioration state of platelets obtained was evaluated based on the positive rate of Annexin V. Specifically, in measurement of the Annexin V positive rate in platelets, 100 μL of the culture solution after platelet production was poured into a FACS tube, and the solution was stained by adding the following labeled antibody and protein, diluted to 5 times with an Annexin V binding buffer (BD Biosciences) immediately before flow cytometer analysis, and then subjected to analysis.
1.0 μL anti-CD41a antibody APC label (Bio Legend 303710)
1.0 μL anti-CD42b antibody PE label (Bio Legend 303906)
5 μL Annexin V FITC label (BD Biosciences 556419)

[4] = tested on: immortalized megakaryocyte cell lines (SeV2-MKCL)
Text: The forced expression was canceled by performing culturing in a medium not containing DOX. Specifically, the immortalized megakaryocyte cell lines (SeV2-MKCL) obtained using the method (1) were washed twice with PBS (−), and suspended in a following platelet producing medium. The cell dissemination density was set to 4.0×10^5 cells/mL (×4).
The platelet producing medium was obtained by adding the components listed below to a basal medium IMDM (concentration means final concentration).

[5] = tested on: immortalized megakaryocyte cell line from human iPS cells (NIH5); conditions: 4.0×10^5 (×4) or 6.0×10^5 cells/mL (×6), 5 days, glycine added, compared with control in high-density culture, FIG. 6A
Experimental: (§1) Immortalized megakaryocyte cell lines were induced in the same manner as in Examples 1(1-1) to (1-6) except that human iPS cells (NIH5 and NIH8) were used instead of the human iPS cells (TKDN SeV2). As to the obtained immortalized megakaryocyte cell line, the number of platelets was counted and the platelet concentration was calculated in the same manner as in Example 1(2) except that the cell dissemination density was set to 4.0×10^5 cells/mL (×4) or 6.0×10^5 cells/mL (×6) and the culture was performed for 5 days. As a control, the platelet concentration was calculated in the same manner except that the cell dissemination density was set to 1.0×10^5 cells/mL (×1), 4.0×10^5 cells/mL (×4), or 6.0×10^5 cells/mL (×6), and the glycine-non-added platelet production medium was used.
(§2) FIGS. 6A and 6B are graphs each showing the platelet concentration. […] In FIGS. 6A and 6B, the horizontal axis indicates the condition of cell dissemination density and glycine concentration, and the vertical axis indicates the platelet concentration.

[6] = tested on: immortalized megakaryocyte cell line from human iPS cells (NIH8); conditions: 4.0×10^5 (×4) or 6.0×10^5 cells/mL (×6), 5 days, glycine added, compared with control in high-density culture, FIG. 6B
Experimental: as §1, §2

[7] = high-density culture, added cysteine 1, 5 or 10 mmol/L, compared to control (NC) without cysteine, FIG. 4
[8] = high-density culture (×4), added glycine 5, 10, 20, 40 mmol/L, compared to control without glycine, FIGS. 2A, 2B

N[C@@H](CS)C(=O)O [cysteine]
expression level of CD62p (increase percentage of MFI) [1, 7]: increased at all cysteine concentrations | expression level of PAC-1 (increase percentage of MFI) [1, 7]: increased at all cysteine concentrations

NCC(=O)O [glycine]
ability of megakaryocyte to produce platelets (P/M ratio) ([2]; any glycine concentration, FIG. 5A): improved | platelet concentration ([2]; FIG. 5B): increased at any glycine concentration | deterioration of platelet (percentage of Annexin V-positive cells) [3]: suppressed | number of platelets [3]: increased | number of platelets ([4]; 4.0×10^5 cells/mL (×4), added glycine 1, 5, 10, 20 or 40 mmol/L, 6 days, compared with high-density culture using glycine-non-added medium, FIGS. 1A, 1B): increased at all concentrations | ability of megakaryocyte to produce platelets ([4]; glycine concentration at the start of production of platelets 11 to 31 mmol/L or 11 to 21 mmol/L, high-density culture (×4)): further improved | expression level of CD62p (increase percentage of MFI) [1, 8]: increased at all glycine concentrations | expression level of PAC-1 (increase percentage of MFI) [1, 8]: increased at all glycine concentrations | platelet concentration [5]: increased at any dissemination density | platelet concentration [6]: increased at any dissemination density
